{"source": "paper PMC7524040", "about": "(Biochemistry, 2020)", "origin": "cited, not measured here", "key": {"[1]": {"test_system": "cardiac heteromeric Kir3.1/3.4 channel", "conditions": "heteromeric Kir3.1/Kir3.4 channels"}}, "note": "Ends that are not written are not given here.", "data": [{"substance": "Tertiapin (ALCNCNRIIIPHMCWKKCGKK; not fully specified (C-terminus, bridges); ends and bridges not checked; UniProt P56587 1-21, looked up) [TPN]", "values": [{"measurement": "decrease in the inhibitory action after air oxidation of M13", "setting": "[1]", "result": "4- to 5 fold"}, {"measurement": "IC50", "setting": "native IKACh channel", "result": 30, "unit": "nM"}]}]}
